Marks after values point to notes of the source that are not given here.
Columns and labels:
glycerol-rat model = assay: Acute renal protection in the glycerol rat (haemolytic-uraemic syndrome); assay type: in vivo; conditions: Group 3: glycerol + 10 mg/kg BW p.o. 8 and 19 h after glycerol injection
Excerpt: B-2. Acute Renal Protection by Partial A1 Agonists in the Glyeriol Rat (Haemolytic-Uraemic Syndrome; Example for Acute Kidney Disorders)
Glycerol-induced haemolysis in rats is an established animal model for investigating haemolysis-induced, acute renal failure with decrease of the individual nephron filtrate and a rapid increase in substances that are usually eliminated in the urine, such as creatinine and urea. Haemolytic uraemia leads to acute blockade of the tubules through protein deposits (“luminal casts”) and finally to degeneration/necrosis of the tubules. At present there is no known curative therapy, i.e. an antidegenerative therapy of structural kidney injury.
Procedure: male Wistar:WU rats (200-220 g) from Charles River received, after withdrawal of water for 14-18 hours, a single subcutaneous injection of a 50% glycerol solution (8 ml/kg body weight) or 0.9% NaCl (controls). The following groups were investigated:
Group 2 Glycerol+placebo (60 g glycerol+100 g water+969 g PEG-400); n=12
Group 3 Glycerol+10 mg/kg BW partial A1 agonist EXAMPLE 1, p.o. in placebo, 8 and 19 hours after glycerol injection; n=8
At the end of the protocol (=24 hours after glycerol intoxication), the following samples were obtained/measurements were carried out: four-hour urine collection with administration of water (10 ml water/kg body weight, p.o.), and TaqMan analyses of renal injury markers in the renal cortex of the right kidney and histological assessment of the “kidney injury score” in the left kidney, by determining the degree of renal damage from the intensity of “luminal casts+tubular necrosis/degeneration”.

[1] = test system: 5/6 nephrectomy rat model; assay: Left-ventricular diastolic dysfunction under isoprenaline infusion in 5/6 nephrectomized rats; assay type: in vivo; conditions: 4 weeks
Excerpt: B-3. Effects of Partial A1 Agonists on Renal and Cardiac Function in 5/6 Nephrectomized Rats (Example 1 for Chronic Kidney Disorder)
5/6 nephrectomy in the rat, in which one kidney and the renal cortex of the second kidney are surgically removed (=5/6 of functional kidney tissue) is an established animal model for interstitial renal fibrosis and chronic renal insufficiency [C. Fleck et al., “Suitability of 5/6 nephrectomy (5/6NX) for the induction of interstitial renal fibrosis in rats Influence of sex, strain, and surgical procedure”, Exp. Tox. Pathology 2006, 57, 195-205]. The model is characterized by progressive proteinuria, disturbed tubular electrolyte transport, a reduced glomerular filtration rate, an increase in urinary output, interstitial fibrosis with reactively occurring lymphocyte infiltrates, glomerulosclerosis and tubular atrophy. The level of proteinuria is a specific index of the renal function prognosis: the higher the proteinuria, the greater is the functional and structural kidney injury and therefore progression of chronic to terminal renal insufficiency (uraemia). During monitoring of therapy, e.g. with the ACE inhibitor enalapril, the course of proteinuria provides information on the functional and structural response to the therapy and thus on the renal function prognosis. As a result of the renal insufficiency and accumulation of umemic toxins, in the animals there is secondary development of a umemic cardiomyopathy, depending on the severity associated with hypertension, increased heart rate, reduced parasympathetic tone, myocardial, left-ventricular hypertrophy and fibrosis, diastolic dysfunction and an increased prevalence of arrhythmias [Svilerova et al. 2010 Physiol Res 59: S81-S88).
Procedure: male Wistar:WU rats (210-250 g) from Charles River had the left kidney and the renal cortex of the right kidney removed (=SNX) in one session; sham-operated rats served as control group (=SOP). The following groups, each with 12 rats per group, were investigated:
Group 2 SNX+placebo (60 g glycerol+100 g water+969 g PEG-400)
Group 3 SNX+10 mg/kg body weight/day enalapril (reference therapy, in the drinking water)
Group 4 SNX+0.1 mg/kg body weight/day partial A1 agonist EXAMPLE 1, p.o. in placebo
Group 5 SNX+1.0 mg/kg body weight/day partial A1 agonist EXAMPLE 1, p.o. in placebo
Group 6 SNX+0.3 mg/kg body weight/day partial A1 agonist EXAMPLE 4, p.o. in placebo
Group 7 SNX+3.0 mg/kg body weight/day partial A1 agonist EXAMPLE 4, p.o. in placebo
Three weeks after 5/6 nephrectomy, the rats developed manifest proteinuria, from this time point the rats were treated for a further four weeks corresponding to the groups stated above. At the end of the protocol, the following samples were obtained/measurements were carried out: eight-hour urine collection with determination of the concentration of hFABP in the urine by ELISA (Rat/Mouse h-FABP ELISA, Hycultbiotech), as marker for end organ damage, invasive measurement of the isoprenaline-induced increase (cumulatively 12.5 ng-250 ng/kg isoprenaline, i.v.) in systolic and diastolic left ventricular function, and TaqMan analyses of renal injury markers in the renal cortex.

N#Cc1c(N)nc(SCc2csc(-c3ccc(Cl)cc3)n2)c(C#N)c1-c1ccc(OCCO)cc1 [EXAMPLE 1, 2-Amino-6-({[2-(4-chlorophenyl)-1,3-thiazol-4-yl]methyl}sulphanyl)-4-[4-(2-hydroxyethoxy)phenyl]pyridine-3,5-dicarbonitrile]
P-creatinine (glycerol-rat model; 24 h after glycerol): 52 ± 1 µmol/L
P-urea (glycerol-rat model; 24 h after glycerol): 11 ± 0.4*^ mmol/l
Kidney injury marker-1 (glycerol-rat model; TaqMan, renal cortex): 951 ± 216 rel. expression
Lipocalin-2 (glycerol-rat model; TaqMan, renal cortex): 204 ± 23 rel. expression
Osteopontin (glycerol-rat model; TaqMan, renal cortex): 5575 ± 694 rel. expression
U-creatinine (glycerol-rat model; four-hour urine collection): 0.2 ± 0.03 μmol/ml urine/kg BW/h
U-protein (glycerol-rat model; four-hour urine collection): 0.02 ± 0.01 μmol/ml urine/kg BW/h
U-sodium (glycerol-rat model; four-hour urine collection): 4 ± 1 μmol/ml urine/kg BW/h
U-urea (glycerol-rat model; four-hour urine collection): 31 ± 6 μmol/ml urine/kg BW/h
Urine volume (glycerol-rat model; four-hour urine collection): 6.7 ± 0.6 ml/kg BW/h
Kidney injury score (histo) (glycerol-rat model; left kidney, luminal casts + tubular necrosis/degeneration): 1.12
left-ventricular pressure decrease as a function of time ([1]; isoprenaline 0 ng/kg body weight, Group 4: SNX + 0.1 mg/kg body weight/day p.o.): 6769 ± 206 mmHg/s
left-ventricular pressure decrease as a function of time ([1]; isoprenaline 0 ng/kg body weight, Group 5: SNX + 1.0 mg/kg body weight/day p.o.): 6516 ± 334 mmHg/s
left-ventricular pressure decrease as a function of time ([1]; isoprenaline 12.5 ng/kg body weight, Group 4: SNX + 0.1 mg/kg body weight/day p.o.): 7990 ± 208 mmHg/s
left-ventricular pressure decrease as a function of time ([1]; isoprenaline 12.5 ng/kg body weight, Group 5: SNX + 1.0 mg/kg body weight/day p.o.): 7126 ± 283 mmHg/s
left-ventricular pressure decrease as a function of time ([1]; isoprenaline 25 ng/kg body weight, Group 4: SNX + 0.1 mg/kg body weight/day p.o.): 8283 ± 222 mmHg/s
left-ventricular pressure decrease as a function of time ([1]; isoprenaline 25 ng/kg body weight, Group 5: SNX + 1.0 mg/kg body weight/day p.o.): 7309 ± 285 mmHg/s
left-ventricular pressure decrease as a function of time ([1]; isoprenaline 50 ng/kg body weight, Group 4: SNX + 0.1 mg/kg body weight/day p.o.): 8913 ± 282 mmHg/s
left-ventricular pressure decrease as a function of time ([1]; isoprenaline 50 ng/kg body weight, Group 5: SNX + 1.0 mg/kg body weight/day p.o.): 7990 ± 213 mmHg/s
left-ventricular pressure decrease as a function of time ([1]; isoprenaline 100 ng/kg body weight, Group 4: SNX + 0.1 mg/kg body weight/day p.o.): 9701 ± 300 mmHg/s
left-ventricular pressure decrease as a function of time ([1]; isoprenaline 100 ng/kg body weight, Group 5: SNX + 1.0 mg/kg body weight/day p.o.): 8722 ± 183 mmHg/s
left-ventricular pressure decrease as a function of time ([1]; isoprenaline 250 ng/kg body weight, Group 4: SNX + 0.1 mg/kg body weight/day p.o.): 9721 ± 307 mmHg/s
left-ventricular pressure decrease as a function of time ([1]; isoprenaline 250 ng/kg body weight, Group 5: SNX + 1.0 mg/kg body weight/day p.o.): 9028 ± 226 mmHg/s
